Assays:
[1] = tested on: colchicine site in αβ-tubulin; assay: [3H]colchicine competition (DEAE-cellulose filter method); type: binding; conditions: [3H]colchicine 5 µmol/l, tubulin 1 µmol/l
Source text: Agents that inhibit tubulin polymerization and destabilize MTs include the colchicinoids, combretastatins, benzimidazole carbamates, vinca alkaloids, and maytansinoids. These drugs act primarily at β-tubulin in the αβ-heterodimer, albeit at different sites. Colchicinoids, combretastatins and benzimidazole carbamates (e.g. nocodazole) localize to the colchicine site near the C-terminus of β-tubulin at the αβ-tubulin intradimer interface, [16], whereas vinca alkaloids and maytansinoids localize to the N-terminal GTPase domain of β-tubulin [17], [18]. […] Its binding affinity, however, was ∼3-fold lower than that of nocodazole (compare values at 5 µmol/l and 20 µmol/l, Fig. 5C).
Tubulin binding of [^3H]colchicine was measured by the DEAE-cellulose filter method. Reaction mixtures contained 1.0 µmol/l αβ-tubulin, 1.0 mol/l monosodium glutamate, 0.1 mol/l glucose-1-phosphate, 1.0 mmol/l MgCl2, 1.0 mmol/l GTP, 0.5 mg/ml BSA, 5% DMSO, 5 µmol/l [^3H]colchicine, and inhibitor at 1, 5, 20 or 50 µmol/l. These reaction conditions strongly stabilize the colchicine-binding activity of tubulin [21].

[2] = tested on: taxol-stabilized MTs; assay: Compound-based depolymerization of taxol-stabilized MTs in vitro; type: biochemical, bovine; conditions: compound 50 µmol/l; for Taxol-stabilized MT population depolymerized: taxol (20 µmol/l)-stabilized MTs
Description: To test this hypothesis, we treated HeLa cells with 0.5 µmol/l taxol, thereby arresting them in metaphase with stabilized spindles. […] To quantify the taxol-mediated inhibition of MT disassembly by compound B, we measured in vitro the depolymerization of taxol (20 µmol/l)-stabilized MTs following incubation with 50 µmol/l compound B (the screen condition). Nocodazole and maytansine (both at 50 µmol/l) were included as controls. At 50 µmol/l, compound B depolymerized 3% of the taxol-stabilized MT population, while nocodazole and maytansine depolymerized 11% and 31% of the taxol-treated MTs, respectively (Fig. 4B). […] This finding further supports our hypothesis that the interaction of compound B with the stabilized MTs must have prevented the Ndc80^488 complex from establishing contact with the MT surface.
MTs were polymerized (30 min, 37°C) from a 1∶10 mixture of rhodamine-labeled:unlabeled bovine brain αβ-tubulin (Cytoskeleton) in BRB-80 buffer (80 mmol/l PIPES pH 6.8, 1 mmol/l MgCl2, 1 mmol/l EGTA) and were then stabilized with 20 µmol/l taxol. The Ndc80^488 complex (0.1 µmol/l) was incubated with 100 µmol/l compound (30 min, 24°C) in 96-well polypropylene plates (Eppendorf). The 10,000 compound DIVERset library (Chembridge) and 200 compounds from the Department of Medicinal Chemistry and Technologies, University of Rome La Sapienza were used in the screen. Next, the MTs (100 nmol/l) were added to the compound-Ndc80^488 complex solution in a 1∶1 v/v ratio. After incubation (10 min, 24°C), the reaction mixtures were transferred to 96-well glass-bottom plates (Greiner Bio-one). Each well was imaged at 519 nm and 590 nm with an IX81 Olympus inverted wide-field microscope (Olympus). Total internal reflection fluorescence imaging was performed with an Olympus IX71 inverted wide-field microscope (Olympus). ImageJ was used for image processing (NIH, USA).
Taxol-stabilized MTs were prepared and diluted as described for the Ndc80^488 binding experiments. Varying compound concentrations in 10 µl of DMSO were added to 490 µl of diluted MTs at 37°C. Following incubation (30 min, 37°C), 450 µl of each mixture was centrifuged (10 min; 30,000 rpm; 37°C) in a Beckman Optima TLX centrifuge (TLA120.1 rotor). Pellets were dissolved in 25 µl of 8 mol/l urea, and the protein content of 20 µl was compared with that from pellets formed without compound.

[3] = tested on: αβ-tubulin; assay: Tubulin polymerization tracked turbidimetrically at 350 nm; type: biochemical; conditions: for IC50: 10 µmol/l αβ-tubulin, GTP-containing buffer, turbidity 350 nm, read-out: IC50 for inhibition of tubulin polymerization
Description: To quantify the antitubulin activity of compound B, we added 1–50 µmol/l compound B to 10 µmol/l αβ-tubulin. […] For this purpose, MTs were assembled from 10 µmol/l αβ-tubulin; 5 min into the reaction compound B was added in concentrations up to 200 µmol/l. MT depolymerization was tracked as a decrease in turbidity at 350 nm (Fig. 5B).
Polymerization of 10 µmol/l αβ-tubulin in BRB-80 buffer was monitored turbidimetrically at 350 nm for 15 min in a temperature-controlled spectrophotometer (37°C; SpectraMax Plus^384, Molecular Devices). To probe the effect of a compound on MT stability the molecule was added 5 min after initiation of tubulin assembly. The decrease in protein turbidity (350 nm) resulting from MT depolymerization was followed for 15 min at 37°C [13]. Quantitative comparisons of drug effects on tubulin assembly were also examined in 0.8 M glutamate with a 15 min drug-tubulin preincubation prior to the addition of GTP [14]. Tubulin assembly was monitored for 20 min at 30°C in Beckman DU7400/7500 spectrophotometers, and the compound concentration inhibiting tubulin assembly by 50% was determined.

[4] = tested on: HeLa cells; assay: Spindle integrity and reversibility in HeLa cells (confocal IF imaging); type: cell-based, human; conditions: for Time after washout until all cells had arrested with a mitotic spindle (reversibility): compound B 5 µmol/l, washout and release into MG132 containing medium
Description: At compound B concentrations of 5 µmol/l and above, the cells arrested robustly in metaphase (∼15 h) and then underwent cell death, as diagnosed by cell shrinkage (Fig. 3B). […] This phenotype is indicative of chromatids being unable to bind to spindle MTs and/or of spindle defects, as observed with nocodazole (Fig. 3C). […] Because drugs that inhibit tubulin polymerization also destabilize MTs, we next probed whether compound B destabilized metaphase spindles. We arrested HeLa cells in metaphase using 10 µmol/l of proteosome inhibitor MG132. […] Thus, compound B prevents tubulin assembly and destabilizes spindle MTs in cells.
To probe whether the activity of compound B is reversible or not, we synchronously released G1/S arrested HeLa cells into fresh medium containing 5 µmol/l compound B (nocodazole was used as the positive control). The cells efficiently arrested in […] due to absence of a mitotic spindle (Fig. 3E, left column of images in each set). Compound B and nocodazole were then washed out and the cells were released in MG132 containing medium.
G1/S synchronization with 2.5 mmol/l thymidine was carried out for 16 h. IF imaging (Leica TCS SP2 confocal microscope) was performed on cells fixed with 4% paraformaldehyde, permeabilized with 0.1% Triton X-100 and treated with 4% BSA. The cells were incubated with appropriate antibodies diluted in 4% BSA in PBS. Primary antibodies used in IF imaging were mouse monoclonal antiNdc80 antibody (1∶1000, Genetex Clone 9G3.23), CREST serum (1∶50, Antibodies Incorporation) and mouse monoclonal anti-α-tubulin antibody (1∶2000, Sigma-Aldrich Clone B512). Secondary antibodies used were Alexa Fluor 488 (1∶150), Cy3 (1∶400) and Cy5 (1∶50) (Jackson Immunoresearch).

Fold more active than compound B as inhibitors of [3H]colchicine-tubulin binding [1] [fold] | Fold lower IC50 for inhibiting tubulin assembly than that of compound B ([3]; turbidimetric, versus compound B) [fold] | Binding affinity for the colchicine site, fold lower than that of nocodazole ([1]; values at 5 and 20 µmol/l compared) [fold] | Inhibition of [3H]colchicine binding to tubulin ([1]; compound 1–50 µmol/l) | Structure (SMILES) | Depolymerization of taxol-stabilized MTs [2] | Taxol-stabilized MT population depolymerized [2] [%] | Effect on metaphase spindles of MG132-arrested cells ([4]; HeLa arrested with 10 µmol/l MG132, 10 µmol/l compound) | Spindle formation in cells released from G1/S ([4]; HeLa, 10 µmol/l compound, confocal IF) | Time after washout until all cells had arrested with a mitotic spindle (reversibility) ([4]; HeLa) [h] | IC50 [3] [µM] | Fold more effective than compound B in inhibiting tubulin polymerization ([3]; versus compound B) [fold]
3 | 4.2 |  |  | CCSCCOC(=O)c1[nH]c2c(c1C)C(=O)C[C@@H](c1ccco1)C2 [A8] | mildly depolymerized |  |  |  |  |  | 
 |  | ~3 | significantly inhibited | Cc1c(C(=O)OCC2CCCO2)[nH]c2c1C(=O)CC(c1ccco1)C2 (centres unmarked) [compound B, 6-furan-2-yl-3-methyl-4-oxo-4,5,6,7,-tetrahydro-1H-indole-2-carboxylic acid tetrahydro-furan-2-ylmethyl ester] |  | 3 | depolymerized the spindle | All cells lacked a mitotic spindle | ≤ 3 | 5.5 | 

Source: publication PMC2904697, “A Screen for Kinetochore-Microtubule Interaction Inhibitors Identifies Novel Antitubulin Compounds” (PLoS ONE, 2010)
